# From publication PMC7865754, “Design and Synthesis of π-Extended Resveratrol Analogues and In Vitro Antioxidant and Anti-Inflammatory Activity Evaluation” (Molecules, 2021)
# Several values for one entry are separate records, joined by “and”; a condition that tells them apart may be missing. Identical values can stand only once.
# Columns and labels:
# [1] = In vitro ABTS radical scavenging assay; settings: mean ± SEM, n = 3; 30 min incubation, absorbance at 734 nm
# Protocol: ABTS (2,2′-azinobis (3-ethylbenzothiazoline-6-sulfonic acid) diammonium salt) assay was used for the antioxidant estimation. Though many methods are available, this appears to be the most popular because of its operational simplicity, short experimental time, and the employment of the inexpensive spectrophotometer.
# Antioxidant activity was tested in the dark room by ABTS assay. UV-1800 (Shimadzu Corporation, Kyoto, Japan) was used to measure UV absorption. Hellma’s 104.600-QC Quartz cell was used as a UV cell. IC50 values were obtained using OriginPro 8.0 software (OriginLab Corporation, Northampton, MA, USA).
# Antioxidant assay using ABTS
# The radical cation was prepared by mixing an equal amount of 7mM ABTS (2,2’-azino-bis(3-ethylbenzothiazoline-6-sulphonic acid)) stock solution with 2.45 mM potassium persulfate stock solution. This mixture was stored at 0 °C for 12 hours under darkness. The above ABTS […]
# Then these solutions were diluted with methanol to 500 µM, 250 µM, 125 µM, 62.5 µM, […]
# tubes, 0.9 mL of the ABTS solution and 0.1 mL of the compound solution were mixed under darkness. After 30 min of incubation, the UV absorption at 734 nm was measured. Control was used the mixture of 0.9 mL ABTS and 0.1 mL methanol. […]
# (§1) Statistical analysis. Statistical significance was analyzed using the GraphPad Prism 5 software (GraphPad Software, San Diego, CA, USA). The comparison of two groups was performed by the unpaired t test. Values of *P less than 0.05, **P less than 0.01 and ***P less than 0.001 were considered statistically significant.
# [2] = test system: IL-6 gene expression in LPS-stimulated RAW 264.7 cells; test: Pro-inflammatory cytokine gene expression by endpoint RT-PCR, IL-6; assay type: cell-based, Murine; settings: 12.5~50 μM compound, 1 μg/mL LPS, 24 h
# Protocol: (§2) We have further investigated whether resveratrol and its analogues can reduce the inflammatory activity of macrophages. For this purpose, we examined the downregulation of pro-inflammatory cytokine gene expression of LPS-stimulated RAW 264.7 cells by potent inhibitors of NO production (1, 2, 5, and 7) (Figure 2). […] Treatment with 50 μM of analogue 2 was highly toxic to the cells.
# (§3) Figure 2 Inhibitory effects of 1–7 on pro-inflammatory cytokine production of activated macrophage cells. RAW 264.7 cells were treated with 1 μg/mL LPS for 24 h in the presence of the indicated amounts (12.5~50 μM) of compounds. Gene expression levels were analyzed by endpoint reverse transcriptase-polymerase chain reaction and 1.5% agarose gel electrophoresis. GAPDH was used as a control.
# (§4) Reverse transcriptase-polymerase chain reaction (RT-PCR)
# (§5) Total RNA was isolated from Raw 264.7 cells using TRIzol reagent (Invitrogen, Waltham,
# (§6) MA, USA). Relative levels of pro-inflammatory cytokine gene expression were tested by
# (§7) 1.5% agarose gel electrophoresis after endpoint RT-PCR using GoScript™ Reverse
# (§8) Transcriptase (Promega). The sequences of the sense and anti-sense primers used for
# (§9) amplification are as follows. IL-1β, 5’-[…]-3’, 5’-
# (§10) TNF-α, 5’-[…]-3’, 5’-GGCACCA
# (§11) -3’. As a control, glyceraldehyde-3-phosphate dehydrogenase
# (§12) (GAPDH) gene was also amplified using 5’-[…]-3’, 5’-
# (§13) (1 picture or pasted object on this page, not shown here)
# [3] = test system: IL-1β gene expression in LPS-stimulated RAW 264.7 cells; test: Pro-inflammatory cytokine gene expression by endpoint RT-PCR, IL-1β; assay type: cell-based, Murine; settings: 12.5~50 μM compound, 1 μg/mL LPS, 24 h
# Protocol: as §2, §3, §4, §5, §6, §7, §8, §9, §10, §11, §12, §13
# RAW 264.7 cells = test: Cell viability (MTT) assay; assay type: cell-based; settings: for Cell Viability LD50: 24 h
# From the text: In the pathogenesis of inflammatory-related disorders, NO is recognized as one of the important mediators. […] Herein, to understand the anti-inflammatory properties of the resveratrol analogues, we studied their inhibitory effects against NO production in LPS-treated RAW 264.7 cells. Although it is not possible to measure NO quantitatively in a biological environment due to its rapid oxidation to NO2 (nitrite), short physiological half-life and presence of other free radicals, NO secretion activity in cells is indirectly determined by Griess assay counting its stable product NO2 levels. The inhibitory effects of 1–7 on NO production were collected in Table 2. […] Cell viability was not affected up to 50 μM except for 2. We also applied in vitro efficacy index (iEI) paradigm, the ratio of toxicity (LD50)/anti-inflammatory potency (ED50), to confirm that the anti-inflammatory activity is in the viable cells only. […] On the whole, compounds 5 and 7 have much-improved iEI values compared to any other compounds. […]
# NO assay and cell viability test
# Murine macrophage, Raw 264.7 cells were grown in Dulbecco’s modified Eagle’s medium (Gibco, Carlsbad , CA, USA), supplemented with 2 mM glutamine, antibiotics (100 U/mL of penicillin A and […] of streptomycin) and 10% FBS (Gibco). Cells were cultured in 96-well plates (5×10^4 cells), treated with serial dilutions of compound (3.125-100 µM) and stimulated with LPS (1 µg/mL) for 24 h at 37°C. After incubation, the supernatant was collected and the amount of nitrite was quantified using the Griess Reagent System ( Promega, Fitchburg, WI, USA ). For the correction of NO production, cell viability was measured using the CellTiter 96® Aqueous one solution cell proliferation assay kit (Promega). Cells were incubated with varying amounts of compound for 24 h, then MTS (tetrazolium salt) reagent was added to the plates. After 1h, the absorbance at 490 nm was read using a microplate reader (Thermo Scientific, Waltham, MA, USA).
# as §1
# [4] = test system: TNF-α gene expression in LPS-stimulated RAW 264.7 cells; test: Pro-inflammatory cytokine gene expression by endpoint RT-PCR, TNF-α; assay type: cell-based, Murine; settings: 12.5~50 μM compound, 1 μg/mL LPS, 24 h
# Protocol: as §2, §3, §4, §5, §6, §7, §8, §9, §10, §11, §12, §13
# [5] = test system: NO production in LPS-treated RAW 264.7 cells; test: Inhibition of NO production (Griess assay, nitrite) in LPS-treated RAW 264.7 cells; assay type: cell-based, Murine; settings: LPS 1 μg/mL, 24 h, NO2 released into culture media, mean ± SEM, n = 3
# From the text: In the pathogenesis of inflammatory-related disorders, NO is recognized as one of the important mediators. […] Herein, to understand the anti-inflammatory properties of the resveratrol analogues, we studied their inhibitory effects against NO production in LPS-treated RAW 264.7 cells. Although it is not possible to measure NO quantitatively in a biological environment due to its rapid oxidation to NO2 (nitrite), short physiological half-life and presence of other free radicals, NO secretion activity in cells is indirectly determined by Griess assay counting its stable product NO2 levels. The inhibitory effects of 1–7 on NO production were collected in Table 2. […] Cell viability was not affected up to 50 μM except for 2. […]
# Anti-inflammatory activity was measured as the effect of compounds on inhibiting NO production versus cell viability. […]
# Murine macrophage, Raw 264.7 cells were grown in Dulbecco’s modified Eagle’s medium (Gibco, Carlsbad , CA, USA), supplemented with 2 mM glutamine, antibiotics (100 U/mL of penicillin A and […] of streptomycin) and 10% FBS (Gibco). […] After incubation, the supernatant was collected and the amount of nitrite was quantified using the Griess Reagent System ( Promega, Fitchburg, WI, USA ). For the correction of NO production, cell viability was measured using the CellTiter 96® Aqueous one solution cell proliferation assay kit (Promega). […]
# [6] = RAW 264.7 cells, mean ± SEM, n = 3
SMILES,IC50 [1],Level of IL-6 gene expression [2],Level of IL-1β gene expression [3],Cell Viability LD50 (RAW 264.7 cells; mouse),Level of TNF-α gene expression [4],"Toxicity to the cells (RAW 264.7 cells; 50 μM, LPS-stimulated RAW 264.7 cells, seen in the RT-PCR experiment (RNA degraded, no PCR amplification))",Cell Viability LD50 (RAW 264.7 cells; [6]),NO/MTT Assay ED50 [5]
"O=C1O[C@H]([C@@H](O)CO)C(O)=C1O [Ascorbic acid, reference compound]",19.8 ± 0.934 µM,–,–,–,–,–,–,–
"Oc1ccc(/C=C/c2cc(O)cc(O)c2)cc1 [Compound 1, 3,5,4′-trihydroxy-trans-stilbene, reference compound]",–,significantly reduced,significantly reduced,81.08 ± 9.258 µM,did not change,–,–,–
Oc1cc(O)cc(/C=C/c2ccc3cc(O)ccc3c2)c1 [Compound 2],3.14 ± 0.445 µM,significantly reduced,significantly reduced,–,did not change,highly toxic,28.82 ± 0.767 µM,–
Oc1cc(O)cc(/C=C/c2cnc3cc(O)ccc3c2)c1 [Compound 3],3.57 ± 0.496 µM,–,–,–,–,–,167.12 ± 13.652 µM,–
Oc1cc(O)cc(/C=C/c2ccc3cc(O)ccc3n2)c1 [Compound 4],3.61 ± 0.253 µM,–,–,–,–,–,123.47 ± 6.388 µM,–
Oc1cc(O)cc(/C=C/c2cc3ccc(O)cc3cn2)c1 [Compound 5],2.81 ± 0.034 µM,significantly reduced,significantly reduced,–,did not change,–,63.30 ± 1.139 µM,13.08 µM and 13.08 ± 0.690 µM
Oc1cc(O)cc(/C=C/c2cnc3cc(O)ccc3n2)c1 [Compound 6],3.1 ± 0.953 µM,–,–,–,–,–,120.46 ± 4.237 µM,–
Oc1cc(O)cc(/C=C/c2ncc3cc(O)ccc3n2)c1 [Compound 7],3.54 ± 0.714 µM,significantly reduced,significantly reduced,–,did not change,–,92.58 ± 8.745 µM,21.67 µM and 21.67 ± 1.101 µM
